Reference: patent US20240050574A1, “IONIZABLE LIPIDS” (eTheRNA immunotherapies NV, priority 2020, published 2024)

Assays:
[1] = mRNA encapsulation efficiency by Ribogreen RNA assay; type: physicochemical; settings: for % encap: eGFP mRNA; for E.E. (encapsulation efficiency): N/P 10
Experimental: Lipid based nanoparticles are produced by microfluidic mixing of an mRNA solution in sodium acetate buffer (100 mM, pH4) and lipid solution in a 2:1 volume ratio at a speed of 9 mL/min using the NanoAssemblr Benchtop (Precision Nanosystems). The lipid solution contained a mixture of the ionizable lipid of interest, DSPC, DOPC or DOPE (Avanti), Cholesterol (Sigma) and DMG-PEG2000 (Sunbright GM-020, NOF corporation. The 4 lipids were mixed at 6 different molar ratios. LNPs were dialyzed against TBS (10000 times more TBS volume than LNP volume) using slide-a-lyzer dialysis cassettes (20K MWCO, 3 mL, ThermoFisher). Size, polydispersity and zeta potential were measured with a Zetasizer Nano (Malvern). mRNA encapsulation was measured by standard Ribogreen RNA assay (Invitrogen). […]
(§1) LNP formulations were prepared using a modified procedure of a method previously described for siRNA LNP synthesis. All formulations were prepared in a sterile manner with a N/P ratio of 10. All lipid components were dissolved in ethanol at molar ratios of 50:10:38.5:1.5 mol % (ionizable lipid/DSPC/Cholesterol/DMG-PEG2000). DSPC, Cholesterol and DMG-PEG2000 were purchased from Avanti Polar Lipids (Alabaster, Alabama, USA), while the Ionizable lipids are synthesized in-house. The final lipid concentration in ethanol was fixed at 10 mg/mL. E7 mRNA was dissolved in 100 mM acetate buffer (Sigma Aldrich, Saint-Louis, Missouri, USA) pH 4. The ethanol and aqueous phase were combined using a microfluidic mixer (NanoAssemblr® BenchTop (Precision Nanosystems, Vancouver, BC) in a 2:1 (aqueous:ethanol) ratio. Formulations were dialysed afterwards against 1× Sterile TBS pH 7.4 (Sigma Aldrich, Saint-Louis, Missouri, USA) using Slide-A-Lyzer® dialysis cassettes with a MWCO of 20.000 Da (Thermo Scientific, Massachusetts, USA) for 18 hours. Afterwards, the purified formulations were concentrated using Amicon ultra centrifugal filters (EMD Millipore, Massachusetts, USA). Finally, the exact concentration and E.E. % was determined through a Ribogreen Assay prior to final dilution with TBS (100 μg/mL E7 mRNA per formulation. All formulations were characterized for size and PDI using Dynamic Light Scattering Zetasizer Nano-ZS (Malvern Pananlytical Ltd., Malvern, UK) and stored afterwards at 4° C. The physico-chemical characteristics of each formulation can be found in Table 5.

[2] = LNP size and polydispersity index by Dynamic Light Scattering (Malvern Zetasizer); type: physicochemical
[3] = as above; type: physicochemical; settings: N/P 10
Experimental: Lipid based nanoparticles are produced by microfluidic mixing of an mRNA solution in sodium acetate buffer (100 mM, pH4) and lipid solution in a 2:1 volume ratio at a speed of 9 mL/min using the NanoAssemblr Benchtop (Precision Nanosystems). The lipid solution contained a mixture of the ionizable lipid of interest, DSPC, DOPC or DOPE (Avanti), Cholesterol (Sigma) and DMG-PEG2000 (Sunbright GM-020, NOF corporation. The 4 lipids were mixed at 6 different molar ratios. LNPs were dialyzed against TBS (10000 times more TBS volume than LNP volume) using slide-a-lyzer dialysis cassettes (20K MWCO, 3 mL, ThermoFisher). Size, polydispersity and zeta potential were measured with a Zetasizer Nano (Malvern). mRNA encapsulation was measured by standard Ribogreen RNA assay (Invitrogen).
Size and Poly Dispersity Index were assessed by Dynamic Light Scattering (DLS) on a Malvern Zetasizer. MC-3 is the ionizable lipid used in Onpattro and is considered the state-of-the art.
as §1

[4] = Body weight after intratumoral LNP administration (CT26 model); type: in vivo, Balb/c mice; settings: after intratumoral administration of 10 μg mRNA LNP
Experimental: Fluc mRNA expression in tumor and liver was assessed at 6 an 24 hours post injection. By injecting mice peritoneally with D-luciferin (Promega), bioluminescence can be measured through in vivo imaging (IVIS Spectrum System). Bioluminescence is generated through an oxidation reaction which occurs between the enzyme luciferase derived from the firefly mRNA encapsulated in the LNP and its substrate D-luciferin. The Living Image Software (PerkinElmer) was used to specify tumor and liver ‘region of interests (ROIs) after which the average radiance (p/s/cm^2/sr) was calculated within these ROIs. To monitor tolerability of different LNP types used, bodyweight at 6 and 24 hours post injection was compared to baseline bodyweight at day of randomization.
Balb/c mice were subcutaneously inoculated with CT26 tumor cells. When tumors reached a mean volume of 50-100 mm^3, tumors were injected with the respective mRNA LNPs (10 μg mRNA; 20 μl volume; TBS buffer) or with control buffer.

[5] = Body weight after intratumoral LNP administration (B16F10 model); type: in vivo, C57/BL6 mice; settings: B16F10 model (Example 2.5); after intratumoral administration of 10 μg mRNA LNP
[6] = Table 2, LNP ionizable lipid/DOPE/cholesterol/DMG-PEG2000 about 50/10/38.5/1.5
[7] = Table 2, LNP ionizable lipid/DOPE/cholesterol/DMG-PEG2000 about 50/10/38.5/1.5, eGFP mRNA
[8] = Table 2, LNP ionizable lipid/DOPE/cholesterol/DMG-PEG2000 about 50/10/38.5/1.5, eGFP mRNA, mRNA/ionizable lipid molar ratio 1/10, in nm (unit assumed)
[9] = Table 6 (Example 4, HA mRNA), ionizable lipid/DSPC/Chol/DMG-PEG2000 50/10/38.5/1.5 mol %
[10] = Table 6 (Example 4, HA mRNA), ionizable lipid/DSPC/Chol/DMG-PEG2000 50/10/38.5/1.5 mol %, N/P 10
[11] = Table 3, LNP ionizable lipid/phospholipid/cholesterol/DMG-PEG2000 about 50/10/38.5/1.5, DOPE, except MC-3 with DSPC
[12] = Table 3, LNP ionizable lipid/phospholipid/cholesterol/DMG-PEG2000 about 50/10/38.5/1.5, DOPE, except MC-3 with DSPC, eGFP mRNA
[13] = Table 3, LNP ionizable lipid/phospholipid/cholesterol/DMG-PEG2000 about 50/10/38.5/1.5, DOPE, except MC-3 with DSPC, eGFP mRNA, in nm (unit assumed)
[14] = Table 5, ionizable lipid/DSPC/Chol/DMG-PEG2000 50/10/38.5/1.5 mol %, E7 mRNA
[15] = Table 7, Ratio 1: 50/10/38.5/1.5 mol % ionizable lipid/DSPC (SS-EC: DOPE)/Chol/DMG-PEG2000

| % encap [1, 6] | PDI [2, 7] | size [2, 8] | % encap [1, 11] | PDI [2, 12] | size [2, 13] | SMILES | other results |
| --- | --- | --- | --- | --- | --- | --- | --- |
|  |  |  | 95% | 0.268 | 75.8 | CCCCCCCC/C=C\CCCCCCCC(=O)OCC(CNC(=O)OCCOC(C)(C)OCCOC(=O)NCCCN1CCCCC1CC)OC(=O)CCCCCCC/C=C\CCCCCCCC (centres unmarked) [K-Ac6e-DOg] |  |
|  |  |  | 100% | 0.241 | 67.3 | CCCCCCCC/C=C\CCCCCCCC(=O)OCC(CNC(=O)OCCOCCOC(=O)NCCCN1CCCCC1CC)OC(=O)CCCCCCC/C=C\CCCCCCCC (centres unmarked) [E-Ac6e-DOg] |  |
|  |  |  | 98% | 0.3 | 68.08 | CCCCCCCC/C=C\CCCCCCCC(=O)OCC(CNC(=O)OCCSSCCOC(=O)NCCN(C)C)OC(=O)CCCCCCC/C=C\CCCCCCCC (centres unmarked) [S-Adm-DOg] |  |
| 98% | 0.197 | 86.95 |  |  |  | CCCCCCCCCCCCN(CCCCCCCCCCCC)C(=O)OCCSSCCOC(=O)NCCN(C(C)C)C(C)C [S-Adip-Dda] |  |
| 97% | 0.292 | 78.59 |  |  |  | CCCCCCCCCCCCN(CCCCCCCCCCCC)C(=O)OCCOC(C)(C)OCCOC(=O)NCCN(C(C)C)C(C)C [K-Adip-Dda] |  |
|  |  |  | 95% | 0.311 | 63.86 | CCCCCCCC/C=C\CCCCCCCC(=O)OCC(CNC(=O)OCCSSCCOC(=O)NCCCN1CCCCC1CC)OC(=O)CCCCCCC/C=C\CCCCCCCC (centres unmarked) [S-Ac6e-DOg] | PDI [3, 14]: 0.266; size [3, 14]: 178.1 nm; E.E. (encapsulation efficiency) [1, 14]: 92% |
|  |  |  | 93% | 0.108 | 62.26 | CCCCCCCC/C=C\CCCCCCCC(=O)OCC(CNC(=O)OCCOC(C)(C)OCCOC(=O)NCCN1CCCCCC1)OC(=O)CCCCCCC/C=C\CCCCCCCC (centres unmarked) [K-Ac7-DOg] | PDI [3, 14]: 0.130; size [3, 14]: 164.8 nm; E.E. (encapsulation efficiency) [1, 14]: 49% |

The remaining lines, values behind:

| SMILES | % encap [1, 6] | PDI [2, 7] | size [2, 8] | % encap [1, 11] | PDI [2, 12] | size [2, 13] | other results |
| --- | --- | --- | --- | --- | --- | --- | --- |
| CCCCCCCCCCCCCCCCCCN(CCCCCCCCCCCCCCCCCC)C(=O)OCCSSCCOC(=O)NCCN(C(C)C)C(C)C [S-Adip-Dsa] | 101% | 0.153 | 70.9 |  |  |  |  |
| CCCCCCCCCCCCN(CCCCCCCCCCCC)C(=O)OCCSSCCOC(=O)NCCN(C)C [S-Adm-Dda] | 100% | 0.44 | 115.3 |  |  |  |  |
| CCCCCCCCC(CCCCCC)C(=O)OCCN(CCOC(=O)C(CCCCCC)CCCCCCCC)C(=O)OCCSSCCOC(=O)NCCN1CCN(C)CC1 (centres unmarked) [S-Amp-DHDa] |  |  |  |  |  |  | E.E. (encapsulation efficiency) [1, 9]: 99%; PDI [2, 10]: 0.1515; size [2, 10]: 106.3 nm |
| CCCCCCCCCCCCN(CCCCCCCCCCCC)C(=O)OCCSSCCOC(=O)NCCN1CCCCCC1 [S-Ac7-Dda] | 95% | 0.223 | 74.28 |  |  |  |  |
| CCCCC/C=C\C/C=C\CCCCCCCCC(CCCCCCCC/C=C\C/C=C\CCCCC)OC(=O)CCCN(C)C [MC3, reference compound] | 100% | 0.103 | 73.14 | 94% | 0.08 | 73.33 | PDI [3, 14]: 0.106; size [3, 14]: 67.57 nm; PDI [3, 15]: 0.117; size [3, 15]: 74 nm; E.E. (encapsulation efficiency) [1, 14]: 99%; E.E. (encapsulation efficiency) [1, 15]: 96%; body weight [4]: significant body weight loss; body weight [5]: significant body weight loss |
| CCCCCCCC/C=C\CCCCCCCC(=O)OCC(CNC(=O)OCCOCCOC(=O)NCCN1CCCCCC1)OC(=O)CCCCCCC/C=C\CCCCCCCC (centres unmarked) [E-Ac7-Dog] |  |  |  | 100% | 0.258 | 93.05 |  |
| CCCCCCCC/C=C\CCCCCCCC(=O)OCC(CNC(=O)OCCOCCOC(=O)NCCN(C)C)OC(=O)CCCCCCC/C=C\CCCCCCCC (centres unmarked) [E-Adm-Dog] |  |  |  | 100% | 0.217 | 59.56 |  |
| CCCCCCCCCCCCCCCCCCN(CCCCCCCCCCCCCCCCCC)C(=O)OCCSSCCOC(=O)NCCN(C)C [S-Adm-Dsa] | 98% | 0.042 | 82.11 | 100% | 0.137 | 91.15 |  |
| CCCCCCCCCCCCCCCCCCN(CCCCCCCCCCCCCCCCCC)C(=O)OCCSSCCOC(=O)NCCN1CCCCCC1 [S-Ac7-Dsa] | 99% | 0.188 | 71.05 | 93% | 0.158 | 89.44 |  |
| CCCCCCCC/C=C\CCCCCCCC(=O)OCC(CNC(=O)OCCOC(C)(C)OCCOC(=O)NCCN(C)C)OC(=O)CCCCCCC/C=C\CCCCCCCC (centres unmarked) [K-Adm-DOg] |  |  |  | 94% | 0.157 | 91.9 |  |
| CCCCCCCCC(CCCCCC)C(=O)OCCN(CCOC(=O)C(CCCCCC)CCCCCCCC)C(=O)OCCSSCCOC(=O)NCCN(C)C (centres unmarked) [S-Adm-DHDa] |  |  |  |  |  |  | E.E. (encapsulation efficiency) [1, 9]: 98%; PDI [2, 10]: 0.184; size [2, 10]: 79.075 nm |
| CCCCCCCCCCCCN(CCCCCCCCCCCC)C(=O)OCCOC(C)(C)OCCOC(=O)NCCN(C)C [K-Adm-Dda] | 100% | 0.197 | 65.56 |  |  |  |  |
